Data from patent publication US20170224833A1, “SELF-ASSEMBLING MOLECULES THAT ACCUMULATE IN ACIDIC TUMOR MICROENVIRONMENTS” (OHIO STATE INNOVATION FOUNDATION, priority 2014, published 2017).
Each block holds one compound with its values, some of them ahead of it. Residues, ends and D or L forms follow the SMILES beside them. No end group written: not given here. *: point of attachment. Rubipy = bis(2,2'-bipyridine)-4'-methyl-4-carboxybipyridine ruthenium(II), conjugated to the lysine epsilon-amine; Palmitoyl = CCCCCCCCCCCCCCCC(=O)*

Legend:
Format in all cases: physicochemical
[1] = MRI r1 relaxivity measurement, 1.5 Tesla; conditions: control standard, 1.5 T
Procedure: An MR relaxometry phantom was built by fixing 5 mm NMR sample tubes containing PA samples at a concentration of 500 μM and pH values 4 and 10 in a 600 ml beaker filled with deionized water. The samples also contained 150 mM NaCl and 2.2 mM CaCl2. The phantom was scanned on a 1.5 Tesla Signa Excite MRI scanner using an 8-channel phased-array head coil (GE Healthcare, Milwaukee, Wis., USA). R relaxometry data were acquired using an Inversion Recovery Fast Spin-Echo (IR-FSE) sequence with the following parameters: inversion time TI=50/100/200/400/600/800/1200/1600/3200 ms; repetition time TR=8000 ms; echo time TE=11 ms; echo train length=10; 90° flip angle; 100×100 mm^2 field-of-view (FOV); 0.5 mm in-plane resolution; 2 mm slice thickness; single coronal slice placed at the center of the phantom. Sample longitudinal relaxation rates (R1) were calculated by fitting the MR signal intensities observed at different TIs (S(TI)) to a three parameter model [Lu et al., MRM 2004]:
S(TI)=|S0×(1−C×exp(−TI×R1))|
Where S0 is the equilibrium signal, C is a constant accounting for imperfect inversion of magnetization. The r1 relaxivity was calculated as the slope in the linear relationship between sample concentrations and their R1 relaxation rates.

[2] = Circular dichroism (CD) spectroscopy of pH-triggered self-assembly transition in 150 mM NaCl, 2.2 mM CaCl2; conditions: for CD Transition pH: 10 μM PA, 150 mM NaCl, 2.2 mM CaCl2, random coil to β-sheet
Procedure: The target PA concentration (10 μM) was below the detectable limit of conventional techniques to determine the morphology such as cryoTEM and small-angle X-ray scattering. Consequently, circular dichroism (CD) spectroscopy was initially used to characterize the morphology of these PAs at various pH values. PA1 was the first molecule synthesized that underwent a self-assembly transition in the desired pH range of 6.6-7.4 at 10 μM PA concentration, in 150 mM NaCl and 2.2 mM CaCl2 (FIG. 2A) (Goldberger, J. E., et al. Angew. Chem. Int. Ed. 2011 50:6292-95). […] The transition pH from random coil to β-sheet occurred at a pH of 6.6. The transition pH was defined as the value at which the ellipticity at 205 nm rises to zero, followed by the appearance of a minimum at 218-220 nm.
Measurements were done on a Jasco-815 Circular Dichroism spectrometer using 1 cm path length quartz cuvettes. 10 μM solutions of peptide amphiphiles were prepared in 150 mM NaCl and 2.2 mM CaCl2 by dilution from a concentrated PA stock (0.5-1 mM, pH 9). Double de-ionized Milli-Q water was used for preparing all solutions. The solutions were then heated at 80° C. for 30 minutes in a water bath and gradually cooled to room temperature. An Accumet XL15 pH meter (Fisher Scientific) coupled with an Orion Ross Ultra semi-micro electrode (8103BNUWP, Thermo Scientific) was used to adjust the pH of the solution to the desired value followed by collection of the CD spectra Each trace shown was averaged over 3 accumulations and was baseline subtracted using aqueous solutions containing salts only. All spectra are cut-off below 205 nm due to absorption by NaCl and CaCl2.
Measurements were done on a Jasco-815 Circular Dichroism spectrometer using 0.5-1 cm path length quartz cuvettes. 500-10 μM of either pure PA or PA mixtures were prepared in 150 mM NaCl and 2.2 mM CaCl2 (and 1.8 mM 20 kDa PEG in select samples) by dilution from a concentrated PA stock (0.5-1 mM, pH 9). Double de-ionized Milli-Q water was used for preparing all solutions. The solutions were then heated at 80° C. for 30 minutes in a water bath and gradually cooled to room temperature. An Accumet XL15 pH meter (Fisher Scientific) coupled with an Orion Ross Ultra semi-micro electrode (8103BNUWP, Thermo Scientific) was used to adjust the pH of the solution to the desired value followed by collection of the CD spectra. Each trace shown was averaged over 3 accumulations and was baseline subtracted using aqueous solutions containing salts only. All spectra are cut-off below 200 nm due to absorption by NaCl and CaCl2. The same procedure was followed for the salt control samples with 3.0 and 4.0 mM CaCl2.
Self-assembly behavior is known to be extremely sensitive to minor changes in monomer structure and presence of impurities. […] CAC measurements via the pyrene 1:3 method (Das, D. et al. J. Colloid Interface Sci. 2008, 327:198) were used to ascertain the single molecule to spherical micelle transitions at varying pH values (FIGS. 24A-24C). CD Spectroscopy was used to determine the pH points at which different concentrations (10-500 μM) of the PA molecules transitioned from a random coil to a β-sheet secondary structure (FIGS. 25A-25C). It has been previously shown that the random coil and β-sheet structures correspond to spherical micellar/isolated molecule and nanofiber morphologies respectively (Ghosh, A. et al. J. Am. Chem. Soc. 2012, 134:3647). The CD transition point was defined to be the pH value at which the ellipticity at 200 nm rose from a negative value (random coil) to zero accompanied by the appearance of a minimum at 218-220 nm. The addition of PA66 shifted the CD transition pH to more basic values by ˜0.6 pH units. […] This ˜0.6 pH shift in CD transition pH to more basic values were also observed when 1.5% of PA67 was added to PA65. […]

[3] = pH titration of peptide amphiphiles (pKa); conditions: 10 μM
Procedure: The titration measurements were conducted on 10 μM peptide amphiphile solutions prepared in 150 mM NaCl and 2.2 mM CaCl2 using milli-Q water. The solution was heated at 80° C. for 30 minutes followed by slow cooling at room temperature. The pH of the solution was then adjusted to 4 using HCl. Finally, an Accumet XL15 pH meter (Fisher Scientific) coupled with an Orion Ross Ultra semi-micro electrode (8103BNUWP, Thermo Scientific) was used to track changes in pH of the solution as NaOH solution was added in small increments. pKa values were obtained from the second inflection points of the first derivative plots of the titration data. The first transition corresponds to neutralization of excess HCl. The calculated pKas reflect the average pKa for all four glutamic acids.

[4] = Fluorescence anisotropy (FA) in mouse blood serum (pure or diluted); conditions: only 1.5% PA67 isolated molecules in serum (control)
Procedure: Fluorescence and FA measurements were done using 20-100 μM of PA mixtures in 150 mM NaCl and 2.2 mM CaCl2 and various serum (MP Biomedicals) concentrations (0.75-100% v/v) diluted in the same salt buffer. PA samples in serum or MSA were not heated and cooled. All samples were then pH adjusted using HCl/NaOH solutions, transferred to a 96-well plate followed by collection of fluorescence emission from PA-(Rubipy)3 first parallel (Ipar) and then perpendicular (Iperp) to the excitation polarization using a hybrid reader fluorimeter (BioTek Synergy H4) at room temperature. The excitation wavelength used was 458 nm and the emission was monitored using a 640/20 nm filter. The same method was followed for control experiments involving serum background samples, dye conjugated MSA, only 1.5% PA-(Rubipy)3 in serum and 100 μM PA mixture in MSA and salt buffer. FA was calculated using the following equation: […]

[5] = Transmission electron microscopy (TEM) of self-assembled morphology
Procedure: TEM images were obtained using solutions of either 10 μM or 0.5 mM peptide amphiphile concentration, as well as 150 mM NaCl and 2.2 mM CaCl2 in Milli-Q water. The solutions were first heated at 80° C. for 30 minutes in a water bath and then gradually cooled to room temperature. This was followed by pH adjustment using either HCl or NaOH. 5 μL of this solution was pipetted onto a Carbon Formvar grid (Electron Microscopy Sciences) and allowed to sit for 2 minutes before being wicked dry using filter paper. For the 10 μM experiments that were performed to determine the time dependence of nanofiber formation, solutions were dropcast onto the grid within three minutes of pH adjustment. The samples were then negatively stained using 1 wt % uranyl acetate and imaged under a FEI Tecnai G2 Bio TWIN TEM system, operating at 100 kV. All TEM experiments were performed in triplicate, using at least three different freshly prepared solutions and grids. […]
TEM images were obtained at various concentrations and pH values, with 150 mM NaCl and 2.2 mM CaCl2 in deionized water. Solutions were heated at 80° C. for 30 minutes and gradually cooled to room temperature. Following temperature equilibration, pH adjustment was achieved using HCl or NaOH. 5 μL of this solution was pipetted onto a Carbon Formvar grid (Electron Microscopy Sciences) and allowed to sit for 2 minutes before being wicked dry using filter paper strips. The samples were negatively stained with 1 wt % uranyl acetate and imaged under a FEI Tecnai G2 Bio TWIN TEM system operating at 100 kV.
Transmission electron microscopy was employed to confirm the self-assembled morphology at different pH values and concentrations. The sample to be tested was basified to a pH of 10, stirred at 90° C. in an oil bath for 30 minutes and cooled to room temperature. The pH was then adjusted with HCl and NaOH to set the peptide solution (in 150 mM NaCl and 2.2 mM CaCl2) to a pH of either 5 or 9. Once the desired pH was reached, 5 μL of the sample was placed and spread onto a Carbon Formvar grid (Electron Microscopy Sciences) and allowed to sit for one minute before being wicked dry with filter paper. A 1 wt % uranyl acetate solution was added and spread over the grid to negatively stain the sample, and was wicked dry immediately after application. The grid was then examined by a FEI Tecnai G2 Biotwin TEM at 100 keV. The diameters of each self-assembled morphology was determined via averaging at least 30 different objects.

[6] = basic to acidic transition from small molecule to cylindrical nanofiber, simulated serum environment
[7] = basic to acidic transition from spherical micelle to cylindrical fiber, simulated serum environment (150 mM NaC, 2.2 mM CaCl2)

Compound: CNC[C@H](O)[C@@H](O)[C@H](O)[C@H](O)CO.CNC[C@H](O)[C@@H](O)[C@H](O)[C@H](O)CO.O=C([O-])CN(CCN(CC(=O)[O-])CC(=O)O)CCN(CC(=O)[O-])CC(=O)O.[Gd+3] [Magnevist, reference compound]
relaxivity of water protons [1]: 4.5 mM⁻¹ s⁻¹

CD Transition pH [2]: 6.6 | pH transition point at 10 μm PA [2, 6]: 6.6
Compound: CCCCCCCCCCCCCCCC(=O)N[C@@H](Cc1ccccc1)C(=O)N[C@@H](C)C(=O)N[C@@H](C)C(=O)N[C@@H](C)C(=O)N[C@@H](CCC(=O)O)C(=O)N[C@@H](CCC(=O)O)C(=O)N[C@@H](CCC(=O)O)C(=O)N[C@@H](CCC(=O)O)C(N)=O [PA2] (Palmitoyl-FAAAEEEE-NH2)

glutamic acids in the deprotonated form at the transition [3]: 91% | CD Transition pH [2]: 6.0 | pH transition point at 10 μm PA [2, 6]: 6.0
Compound: CCCCCCCCCCCCCCCC(=O)N[C@@H](Cc1ccc(O)cc1)C(=O)N[C@@H](C)C(=O)N[C@@H](C)C(=O)N[C@@H](C)C(=O)N[C@@H](CCC(=O)O)C(=O)N[C@@H](CCC(=O)O)C(=O)N[C@@H](CCC(=O)O)C(=O)N[C@@H](CCC(=O)O)C(N)=O [PA4] (Palmitoyl-YAAAEEEE-NH2)

Compound: Palmitoyl-IAAAEEEEK(DO3A:Lu)-NH2 (Palmitoyl-IAAAEEEEK(DO3A)-NH2; also: DO3A chelates Lu) [PA8]
pH transition point at 10 μm PA [2, 7]: 5.7

Compound: Palmitoyl-IAAAEEEEK(DO3A:Tb)-NH2 (Palmitoyl-IAAAEEEEK(DO3A)-NH2; also: DO3A chelates Tb) [PA7]
pH transition point at 10 μm PA [2, 7]: 5.7

Compound: Palmitoyl-MAAAEEEEK-Rubipy (Palmitoyl-MAAAEEEEK(Rubipy); not fully specified (C-terminus); printed as Palmitoyl-MAAAEEEEK-Rubipy) [PA67]
FA, constant independent of pH [4]: ~0.05

Compound: Palmitoyl-VAAAEEEEK(DO3A:Gd)-NH2 (Palmitoyl-VAAAEEEEK(DO3A)-NH2; also: DO3A chelates Gd) [PA6]
pH transition point at 10 μm PA [2, 7]: 5.3 | nanofiber to micelle transition pH, lower than PA5 ([2]; for each concentration (10 μM, 500 μM)): 0.4 units

Compound: Palmitoyl-VAAAEEKE-NH2 [PA11]
pH transition point at 10 μm PA [2, 6]: 6.2

Compound: Palmitoyl-YAAAEEEEK(DO3A:Gd)-NH2 (Palmitoyl-YAAAEEEEK(DO3A)-NH2; also: DO3A chelates Gd) [PA9]
pH transition point at 10 μm PA [2, 7]: 5.1

CD pattern ([2]; 10 μM, pH 5-11): β-sheet pattern | nanofiber diameter ([5]; 500 μM, pH 5): 8.5±1.0 nm | nanofiber diameter ([5]; 500 μM, pH 9): 8.6±0.9 nm
Compound: palmitoyl-YYAAEEEEK(DO3A:Gd)-NH2 [PA73]

micelle to nanofiber transition pH, more basic than PA74 ([2]; all concentrations observed): 0.15-0.63 pH units | nanofiber diameter ([5]; FIG. 50: pH 5, PA74 500 μM, PA75 100 μM): 8.1±1.3 nm | morphology by TEM ([5]; pH 5, PA74 500 μM, PA75 100 μM): nanofiber morphology | morphology by TEM ([5]; pH 9, PA74 500 μM, PA75 100 μM): spherical micelle morphology
Compound: pentadecyl-YYAAEEEEK(DO3A:Gd)-NH2 [PA75]
